This assay concerns the target Tyrosine-protein kinase Lck (Homo sapiens, UniProt P06239).

One may read the pKd as the Kd on a negative log10 scale, so that one unit is a factor of ten. Lower therefore signals a large Kd.

Structures are written as SMILES. pKd: −log10 of the molar value. Where a SMILES comes first, the peptide text is derived from it. [ ]: non-standard residue; d: D form. The star is where a group is joined. pY = N[C@@H](Cc1ccc(OP(=O)(O)O)cc1)C(=O)O; NHPhenethyl = c1ccc(CCN*)cc1; NHBn = c1ccc(CN*)cc1; NHPh = c1ccc(N*)cc1

Tyrosine-protein kinase Lck, sequence (P06239 whole entry): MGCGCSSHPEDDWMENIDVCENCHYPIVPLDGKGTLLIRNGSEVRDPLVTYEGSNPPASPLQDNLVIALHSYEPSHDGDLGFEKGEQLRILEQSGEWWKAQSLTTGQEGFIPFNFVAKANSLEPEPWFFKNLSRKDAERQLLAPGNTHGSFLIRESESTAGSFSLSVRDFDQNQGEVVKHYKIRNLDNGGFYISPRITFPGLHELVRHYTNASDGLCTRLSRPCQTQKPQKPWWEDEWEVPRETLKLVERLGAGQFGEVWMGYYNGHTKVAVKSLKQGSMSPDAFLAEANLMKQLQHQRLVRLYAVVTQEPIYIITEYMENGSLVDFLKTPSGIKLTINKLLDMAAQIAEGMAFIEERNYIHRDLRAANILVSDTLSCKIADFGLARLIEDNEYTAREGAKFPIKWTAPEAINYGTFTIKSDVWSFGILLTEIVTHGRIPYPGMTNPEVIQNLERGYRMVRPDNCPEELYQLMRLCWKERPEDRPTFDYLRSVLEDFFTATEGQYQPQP
Description: Binding affinity against p56 Lck tyrosine kinase SH2 domain was measured using glutathione S-transferase (GST) fusion protein

Compound `CC(=O)N[C@@H](Cc1ccc(OP(=O)(O)O)cc1)C(=O)N[C@@H](CC(C)C)C(=O)NCc1ccccn1` showed a pKd of 4.51.
In turn, `CC(=O)N[C@@H](Cc1ccc(OP(=O)(O)O)cc1)C(=O)N[C@@H](CC(C)C)C(=O)NCc1ccc(N(C)C)cc1` showed a pKd of 4.70.
Turning to `CC(=O)N[C@@H](Cc1ccc(OP(=O)(O)O)cc1)C(=O)N[C@@H](CC(C)C)C(=O)N(C)Cc1ccc(C)cc1`, the pKd is 5.70.
For `COc1cccc(CNC(=O)[C@H](CC(C)C)NC(=O)[C@H](Cc2ccc(OP(=O)(O)O)cc2)NC(C)=O)c1`, the pKd was 5.05.
The value for `CC(=O)N[C@@H](Cc1ccc(OP(=O)(O)O)cc1)C(=O)N[C@@H](CC(C)C)C(=O)NCc1ccc(C(C)C)cc1` was 6.10.
The value for `CC(=O)N[C@@H](Cc1ccc(OP(=O)(O)O)cc1)C(=O)N[C@@H](CC(C)C)C(=O)NCc1ccc(C)cc1` was 5.60.
The value for `CC(=O)N[C@@H](Cc1ccc(OP(=O)(O)O)cc1)C(=O)N[C@@H](CCC(=O)O)C(=O)Nc1ccccc1` (Ac-[pY]-Glu-NHPh) was 5.10; that for `COc1ccc(CNC(=O)[C@H](CCC(=O)O)NC(=O)[C@H](Cc2ccc(OP(=O)(O)O)cc2)NC(C)=O)cc1` was 6.70.
In turn, `CC(=O)N[C@@H](Cc1ccc(OP(=O)(O)O)cc1)C(=O)N[C@@H](CC(C)C)C(=O)NCc1ccncc1` gave a pKd of 4.80.
With `COc1ccc(CNC(=O)[C@H](CC(C)C)NC(=O)[C@H](Cc2ccc(OP(=O)(O)O)cc2)NC(C)=O)cc1`, the negative logarithm of the Kd (pKd) was 5.82.
The value for `CC(=O)N[C@@H](Cc1ccc(OP(=O)(O)O)cc1)C(=O)N[C@@H](CCC(=O)O)C(=O)NCCc1ccccc1` (Ac-[pY]-Glu-NHPhenethyl) was 5.40; that for `COc1ccc(CNC(=O)[C@H](CC(C)C)NC(=O)[C@H](Cc2ccc(OP(=O)(O)O)cc2)NC(C)=O)cc1OC` was 4.92; that for `CC(=O)N[C@@H](Cc1ccc(OP(=O)(O)O)cc1)C(=O)N[C@@H](CC(C)C)C(=O)NCc1ccc(C(C)(C)C)cc1` was 5.10.
With `CC(=O)N[C@@H](Cc1ccc(OP(=O)(O)O)cc1)C(=O)N[C@@H](CC(C)C)C(=O)N[C@@H](C)c1ccc(C)cc1` the figure was 5.82.
With `CC(=O)N[C@@H](Cc1ccc(OP(=O)(O)O)cc1)C(=O)N[C@@H](CC(C)C)C(=O)N[C@@H](C)c1ccc(C(C)C)cc1` the figure was 6.70.
`CC(=O)N[C@@H](Cc1ccc(OP(=O)(O)O)cc1)C(=O)N[C@@H](CC(C)C)C(=O)N[C@H](C)c1ccc(C)cc1` showed a pKd of 4.57.
Compound `COc1ccccc1CNC(=O)[C@H](CC(C)C)NC(=O)[C@H](Cc1ccc(OP(=O)(O)O)cc1)NC(C)=O` showed a pKd of 4.77.
With `CC(=O)N[C@@H](Cc1ccc(OP(=O)(O)O)cc1)C(=O)N[C@@H](CC(C)C)C(=O)NCc1cccnc1` the figure was 4.47; with `CC(=O)N[C@@H](Cc1ccc(OP(=O)(O)O)cc1)C(=O)N[C@@H](CC(C)C)C(=O)NCc1ccccc1` (Ac-[pY]-Leu-NHBn), 4.80.
